# Article PMC8452302 (CPT: Pharmacometrics & Systems Pharmacology, 2021)
# Like-named read-outs stand apart in the source and are kept apart here.
# T1: BCRP (Homo sapiens, UniProt Q9UNQ0)
# T1 sequence (Q9UNQ0 1-655): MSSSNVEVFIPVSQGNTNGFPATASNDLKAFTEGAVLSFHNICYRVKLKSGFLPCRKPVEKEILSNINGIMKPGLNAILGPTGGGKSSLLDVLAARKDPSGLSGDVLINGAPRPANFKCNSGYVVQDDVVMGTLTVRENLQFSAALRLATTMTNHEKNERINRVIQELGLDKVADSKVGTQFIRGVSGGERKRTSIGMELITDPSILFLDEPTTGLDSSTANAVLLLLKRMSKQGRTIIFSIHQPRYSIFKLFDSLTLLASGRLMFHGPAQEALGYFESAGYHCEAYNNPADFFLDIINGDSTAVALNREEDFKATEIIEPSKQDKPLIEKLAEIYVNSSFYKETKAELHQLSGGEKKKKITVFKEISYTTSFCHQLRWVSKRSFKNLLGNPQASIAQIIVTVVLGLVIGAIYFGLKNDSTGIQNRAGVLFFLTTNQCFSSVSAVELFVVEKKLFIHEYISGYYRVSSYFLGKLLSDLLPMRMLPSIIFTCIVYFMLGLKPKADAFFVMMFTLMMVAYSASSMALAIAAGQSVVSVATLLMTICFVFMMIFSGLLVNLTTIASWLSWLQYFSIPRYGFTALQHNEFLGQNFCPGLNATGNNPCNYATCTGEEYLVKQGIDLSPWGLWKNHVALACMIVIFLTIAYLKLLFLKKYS
# T2: OATP1B1 (Homo sapiens, UniProt Q9Y6L6)
# T2 sequence (Q9Y6L6 1-691): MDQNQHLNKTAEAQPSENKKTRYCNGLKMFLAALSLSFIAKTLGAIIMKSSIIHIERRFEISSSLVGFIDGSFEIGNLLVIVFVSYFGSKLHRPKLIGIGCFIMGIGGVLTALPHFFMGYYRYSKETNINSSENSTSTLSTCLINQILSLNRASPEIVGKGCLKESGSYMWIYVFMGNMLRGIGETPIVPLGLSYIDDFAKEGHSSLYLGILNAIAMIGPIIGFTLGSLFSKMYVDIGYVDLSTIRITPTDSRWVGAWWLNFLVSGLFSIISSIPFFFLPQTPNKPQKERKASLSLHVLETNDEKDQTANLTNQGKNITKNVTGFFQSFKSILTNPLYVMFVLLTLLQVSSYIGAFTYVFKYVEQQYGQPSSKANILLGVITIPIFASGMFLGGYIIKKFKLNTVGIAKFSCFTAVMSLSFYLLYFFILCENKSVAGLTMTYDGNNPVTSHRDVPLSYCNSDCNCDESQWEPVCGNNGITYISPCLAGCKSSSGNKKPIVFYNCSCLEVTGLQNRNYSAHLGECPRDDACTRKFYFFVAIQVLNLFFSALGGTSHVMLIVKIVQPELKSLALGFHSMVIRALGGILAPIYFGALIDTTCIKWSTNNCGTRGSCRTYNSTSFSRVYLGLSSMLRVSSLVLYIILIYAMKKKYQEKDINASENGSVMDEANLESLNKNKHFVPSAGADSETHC
# T3: OATP1B3 (Homo sapiens, UniProt Q9NPD5)
# T3 sequence (Q9NPD5 1-702): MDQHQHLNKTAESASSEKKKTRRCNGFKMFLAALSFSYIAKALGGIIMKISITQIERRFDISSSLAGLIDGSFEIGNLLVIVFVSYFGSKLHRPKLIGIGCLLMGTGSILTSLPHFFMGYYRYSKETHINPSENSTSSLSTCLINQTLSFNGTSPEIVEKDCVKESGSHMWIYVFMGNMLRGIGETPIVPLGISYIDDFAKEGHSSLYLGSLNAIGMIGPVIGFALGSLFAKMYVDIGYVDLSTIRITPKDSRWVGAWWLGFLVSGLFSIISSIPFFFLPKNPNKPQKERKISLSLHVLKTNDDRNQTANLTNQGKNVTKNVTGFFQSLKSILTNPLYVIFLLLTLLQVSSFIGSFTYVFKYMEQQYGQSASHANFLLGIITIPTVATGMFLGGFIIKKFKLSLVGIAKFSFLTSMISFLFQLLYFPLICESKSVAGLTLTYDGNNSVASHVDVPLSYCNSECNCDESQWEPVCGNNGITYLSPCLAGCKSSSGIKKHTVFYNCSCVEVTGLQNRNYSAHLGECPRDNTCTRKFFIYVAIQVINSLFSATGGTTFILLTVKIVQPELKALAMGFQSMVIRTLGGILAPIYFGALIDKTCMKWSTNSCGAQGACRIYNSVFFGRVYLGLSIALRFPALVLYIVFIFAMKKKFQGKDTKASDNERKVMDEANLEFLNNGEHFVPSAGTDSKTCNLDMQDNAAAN
# How the values were obtained:
# [1] = test system: BCRP (ABCG2 c.421C>A); conditions: cited from earlier work
# [2] = target: T1, BCRP; assay: In vitro BCRP inhibition, HEK293-BCRP membrane vesicles, rosuvastatin probe; type: biochemical
# [3] = target: T2, OATP1B1; assay: In vitro OATP1B1 inhibition, transfected HEK293 cells, rosuvastatin probe; type: cell-based
# [4] = target: T3, OATP1B3; assay: In vitro OATP1B3 inhibition, transfected HEK293 cells, rosuvastatin probe; type: cell-based
# [5] = target: T2, OATP1B1; assay: Static DDI risk assessment, OATP1B1 R-value; conditions: 1 + Iin,max,u/IC50; metabolite/combination additive; Imax,u for IV
# [6] = target: T3, OATP1B3; assay: Static DDI risk assessment, OATP1B3 R-value; conditions: 1 + Iin,max,u/IC50; metabolite/combination additive; Imax,u for IV
# [7] = cited from earlier work; for Rosuvastatin AUC ratio: observed, rosuvastatin with vs without inhibitor; for Rosuvastatin AUC ratio / Cmax ratio Observed: ref Table S1; for Cmax ratio Observed: rosuvastatin with/without inhibitor, regimens as in table row
# [8] = test system: OATP1B1; conditions: cited from earlier work
# [9] = substrate: CC(C)c1nc(N(C)S(C)(=O)=O)nc(-c2ccc(F)cc2)c1/C=C/[C@@H](O)C[C@@H](O)CC(=O)O; assay: BCRP-mediated transport of substrate; type: in vitro ADME, human; conditions: other: membrane vesicles
# [10] = substrate: CC(C)c1nc(N(C)S(C)(=O)=O)nc(-c2ccc(F)cc2)c1/C=C/[C@@H](O)C[C@@H](O)CC(=O)O; assay: OATP1B1-mediated transport of substrate; type: in vitro ADME; conditions: other: transfected HEK293 cells
Molecule,IC50 [2] [nM],IC50 [3] [nM],IC50 [4] [nM],1B1 R-Value [5],1B3 R-Value [6],Rosuvastatin AUC ratio [7],Cmax ratio Observed [7],further results
O=C(O)c1cc(/N=N/c2ccc(S(=O)(=O)Nc3ccccn3)cc2)ccc1O [sulfasalazine],–,–,–,–,–,–,–,"increase in oral exposure, c.421A/A vs c.421C/C carriers [1]: ≤ 3.5 fold"
C[C@H]1CN(C2COC2)CCN1c1ccc(Nc2cc(-c3ccnc(N4CCn5c(cc6c5CC(C)(C)C6)C4=O)c3CO)cn(C)c2=O)nc1 [Fenebrutinib],630,6800,1100,1.46,3.86,2.48,4.74,increase in rosuvastatin AUC [7]: ~ 150%; change in plasma exposure of OATP1B1 biomarker coproporphyrin I [8]: no change
CC[C@H]1[C@@H](O)[C@@H]2[C@H](CC[C@]3(C)[C@@H]([C@H](C)CCC(=O)O)CC[C@@H]23)[C@@]2(C)CC[C@@H](O)C[C@@H]12 [Obeticholic acid],4100,1960,2150,1.02,1.02,1.25,–,–
C=C[C@@H]1C[C@]1(NC(=O)[C@@H]1C[C@@H]2CN1C(=O)[C@H](C(C)(C)C)NC(=O)O[C@@H]1C[C@H]1CCCCCc1nc3ccc(OC)cc3nc1O2)C(=O)NS(=O)(=O)C1CC1.O [Grazoprevir],–,–,–,1.24,1.07,1.59,4.25,"IC50 ([2]; read-out: BCRP IC50, membrane vesicles, rosuvastatin 0.2 µM probe): 4030 nM; effect on clinical PK of pitavastatin (OATP1B1 probe substrate) [8]: do not alter"
BCRP (Homo sapiens) (protein) MSSSNVEVFIPVSQGNTNGFPATASNDLKAFTEGAVLSFHNICYRVKLKSGFLPCRKPVEKEILSNINGIMKPGLNAILGPTGGGKSSLLDVLAARKDPSGLSGDVLINGAPRPANFKCNSGYVVQDDVVMGTLTVRENLQFSAALRLATTMTNHEKNERINRVIQELGLDKVADSKVGTQFIRGVSGGERKRTSIGMELITDPSILFLDEPTTGLDSSTANAVLLLLKRMSKQGRTIIFSIHQPRYSIFKLFDSLTLLASGRLMFHGPAQEALGYFESAGYHCEAYNNPADFFLDIINGDSTAVALNREEDFKATEIIEPSKQDKPLIEKLAEIYVNSSFYKETKAELHQLSGGEKKKKITVFKEISYTTSFCHQLRWVSKRSFKNLLGNPQASIAQIIVTVVLGLVIGAIYFGLKNDSTGIQNRAGVLFFLTTNQCFSSVSAVELFVVEKKLFIHEYISGYYRVSSYFLGKLLSDLLPMRMLPSIIFTCIVYFMLGLKPKADAFFVMMFTLMMVAYSASSMALAIAAGQSVVSVATLLMTICFVFMMIFSGLLVNLTTIASWLSWLQYFSIPRYGFTALQHNEFLGQNFCPGLNATGNNPCNYATCTGEEYLVKQGIDLSPWGLWKNHVALACMIVIFLTIAYLKLLFLKKYS,–,–,–,–,–,–,–,Km [9]: 3.2 µM
OATP1B1 (Homo sapiens) (protein) MDQNQHLNKTAEAQPSENKKTRYCNGLKMFLAALSLSFIAKTLGAIIMKSSIIHIERRFEISSSLVGFIDGSFEIGNLLVIVFVSYFGSKLHRPKLIGIGCFIMGIGGVLTALPHFFMGYYRYSKETNINSSENSTSTLSTCLINQILSLNRASPEIVGKGCLKESGSYMWIYVFMGNMLRGIGETPIVPLGLSYIDDFAKEGHSSLYLGILNAIAMIGPIIGFTLGSLFSKMYVDIGYVDLSTIRITPTDSRWVGAWWLNFLVSGLFSIISSIPFFFLPQTPNKPQKERKASLSLHVLETNDEKDQTANLTNQGKNITKNVTGFFQSFKSILTNPLYVMFVLLTLLQVSSYIGAFTYVFKYVEQQYGQPSSKANILLGVITIPIFASGMFLGGYIIKKFKLNTVGIAKFSCFTAVMSLSFYLLYFFILCENKSVAGLTMTYDGNNPVTSHRDVPLSYCNSDCNCDESQWEPVCGNNGITYISPCLAGCKSSSGNKKPIVFYNCSCLEVTGLQNRNYSAHLGECPRDDACTRKFYFFVAIQVLNLFFSALGGTSHVMLIVKIVQPELKSLALGFHSMVIRALGGILAPIYFGALIDTTCIKWSTNNCGTRGSCRTYNSTSFSRVYLGLSSMLRVSSLVLYIILIYAMKKKYQEKDINASENGSVMDEANLESLNKNKHFVPSAGADSETHC,–,–,–,–,–,–,–,Km [10]: 3.8 µM
